Reference: patent US20160175457A1, “OCULAR DEVICE” (DSM IP ASSETS B.V., priority 2013, published 2016)
Entries after “also recorded” stand apart in the source; their conditions may differ. Read-outs that look alike come from different tables or passages of the source. No end group written: not given here.

How the values were obtained:
human leukocyte elastase = test: Incubation of synthetic peptides with human leukocyte elastase, mass spectrometry; type: biochemical
Description: (§1) Stock solutions (1 mg/ml in 5% acetonitrile) were prepared from the synthetic peptide substrates. The stock solutions are optionally 10× diluted with MilliQ water prior to incubation. Elastase (Sigma #: E7885), Tryptase (Sigma #: T7063), or tear fluid were added to the diluted substrate solutions and incubation was performed at 25° C. Aliquots of 20 μl were taken at several time points to monitor substrate degradation.
(§2) The aliquots were 10× diluted in 50% acetonitrile, 0.1% formic acid prior to analysis. Mass Spectrometric (MS) analysis was performed by infusion in the LTQ-Orbitrap Fourier Transform Mass Spectrometer (Thermo Fisher, Bremen, Germany). Infusion was performed by mixing 10 μl min^−1 of sample in a 200 μl min^−1 flow of 50% acetonitrile, 0.1% formic acid. The MS analysis was performed in the Orbitrap scanning at 7500 resolution using 200-1600 m/z mass range. Proteolytic activity during the different incubations of the synthetic peptides substrates was studied by manual inspection of the MS data using the Qual browser in the XCalibur software (Thermo Fisher, Bremen, Germany).
(§3) After its purification, the peptide was incubated with contact lens rinsing liquid (cf. Example 1) of a single individual and incubated over the weekend at 25° C. Then samples of the incubation liquid were subjected to mass spectrometry to confirm cleavage. […]

[1] = tested on: proteinases present in tear fluid (contact lens rinsing liquid); test: Incubation of synthetic peptides with tear fluid / contact lens rinsing liquid, cleavage followed by mass spectrometry; type: biochemical, human; conditions: for endoproteolytic cleavage after Arg or Val by tear fluid / proteolytic cleavage observed after incubation with tear fluid (rinsing fluid): 162 hours (FIG. 2) / 165 hours at 25 degrees C.
Description: as §1, §2
Contact lens wearing subjects were invited to participate at the end of their working day. Using sterilized gloves, lenses were removed and the inner surface of each lens was rinsed with 250 microliter of sterilized water. Then 100 microliter samples of the rinsing liquid were incubated overnight at 25 degrees C. with 100 μl of a 1.0 mg/ml BODIPY TR-X casein solution (EnzChek Protease Assay kit ‘Red fluorescence’; Molecular Probes, Eugene, Oreg., USA). Throughout the incubation the fluorescence of the samples was measured every minute (kinetic measurement) according to the EnzChek kit protocol (excitation=590±10 nm, emission=645±20 nm) using a Tecan Infinite M1000 microtiterplate reader (Männedorf, Switzerland).
After its purification, the peptide was incubated with contact lens rinsing liquid (cf. Example 1) of a single individual and incubated over the weekend at 25° C. Then samples of the incubation liquid were subjected to mass spectrometry to confirm cleavage. […] An incubation of the peptide with human leukocyte elastase (Sigma Aldrich) yielded GPLALL and AQ as the major cleavage products. An incubation of the peptide with human lung tryptase (also from Sigma Aldrich) yielded GPLAL/LAQ as the major cleavage products (see FIG. 1). The latter observations indicate that a peptide incorporating aliphatic hydrophobic residues like Ala and Leu support cleavage by human, tryptase- and elastase-like enzymes.
In this Example we test the cleavage activity of tear fluid on two, slightly different synthetic peptides. The first peptide comprises Arg as a charged, basic residue (Ala-Ala-Pro-Arg-Ala-Ala-Arg-Gln, AAPRAARQ (SEQ ID NO: 4)) in order to facilitate cleavage by trypsin-like endoproteases. The second peptide comprises the medium sized aliphatic hydrophobic residue Val instead of Arg (Ala-Ala-Pro-Val-Ala-Ala-Arg-Gln, AAPVAARQ (SEQ ID NO: 5)) in order to facilitate cleavage by elastase-like endoproteases. The experiment was executed essentially as described in Example 2, but in this case tear fluid of four different individuals was obtained and incubated for 165 hours at 25 degrees C. Samples of the incubation liquid were again subjected to mass spectrometry.

human lung tryptase = test: Incubation of synthetic peptide with human lung tryptase, mass spectrometry; type: biochemical; conditions: 25° C., overnight (FIG. 1)
Description: as §1, §2, §3

[2] = tested on: proteinases in contact lens rinsing liquid (tear fluid); test: Incubation of hyaluronic acid-peptide-HEMA conjugate with lyophilized contact lens rinsing liquid, LC-MS of peptide-HEMA fragments; type: biochemical, human; conditions: 35 hours at 35° C., rinsing liquid of five individuals (hard and soft lenses)
Text: (§4) To cope with this experimental difficulty, we decided to focus on the identification of Peptide-HEMA fragments that can be expected to be released from the hyaluronic acid-peptide-HEMA conjugate upon exposure to a suitable proteolytic activity. On the basis of peptide hydrolysis data gathered in Examples 2 and 5, peptide Leu-Leu-Leu-Ala-Ala-Gly (LLLAAG) was synthesized and used to prepare a hyaluronic acid-peptide-HEMA conjugate (Example 6).
Rinsing liquid was collected from 5 individuals, two wearing hard lenses and three wearing soft lenses, at the end of the working day over multiple days. The lenses were collected using sterile nitrile gloves and rinsed with 200 μl MilliQ water on a flat glass microscope slide (Thermo Scientific) containing Grace Bio-labs Press-to-Seal silicone isolator, No PSA (Sigma Aldrich GBL664504-25EA). The rinse liquid was transferred to a Protein LoBind Tube 2.0 ml (Eppendorf) using Maxymum Recovery pipette tips (Axygen scientific). The rinse liquid was frozen at −80° C. as soon as possible. Rinsing fluid was lyophilized overnight when >1.5 ml rinsing liquid was collected for each individual.
Hyaluronic acid-peptide-HEMA conjugates are too heterologous in mass to be directly detected by MS. […]
The conjugate (Example 6) was dissolved in 50 mM ammonium acetate buffer at 0.2 mg/ml and analyzed by 25 μl injections on the LC-MS system. […]

human elastase = test: Incubation of hyaluronic acid-peptide-HEMA conjugate with human elastase preparation, LC-MS; type: biochemical; conditions: 35° C., data not shown
Description: as §4
The conjugate (Example 6) was dissolved in 50 mM ammonium acetate buffer at 0.2 mg/ml and analyzed by 25 μl injections on the LC-MS system. The LC-MS system consisted of an Accela UHPLC (Thermo Fisher, Bremen, Germany) coupled to the LTQ-Orbitrap Fourier Transform Mass Spectrometer. The column used was a ZORBAX Rapid Resolution HT SB-C18, 2.1×50 mm, 1.8 μm (Agilent 827700-902). The autosampler was set to 35° C. for incubation of the samples and the column oven was set to 50° C. The analytes in the samples were separated using a flow of 0.8 ml min^−1 and the following gradient was used: […]
0-0.2 min 2.5% B, 0.2-2 min 2.5-30% B, 2-2.5 min 30-80% B, 2.5-3 min 80% B, 3.01-5 min 2.5% B, where buffer A is 0.1% Formic Acid in Water (Biosolve, LC-MS grade) and buffer B is 0.1% Formic Acid in Acetonitrile (Biosolve, LC-MS grade). The MS was scanning at 7500 resolution m/z 150-800. […]

[3] = tested on: T1, peptide Gly-Pro-Leu-Ala-Leu-Leu-Ala-Gln (GPLALLAQ)
T1 sequence: GPLALLAQ

[4] = molecular target: T2, hyaluronic acid-peptide-HEMA conjugate (hyaluronic acid-Leu-Leu-Leu-Ala-Ala-Gly-HEMA)
T2 chain: LLLAAG

[5] = molecular target: T3, peptide Gly-Pro-Leu-Ala-Leu-Leu-Ala-Gln (GPLALLAQ)
T3 chain: GPLALLAQ

[6] = molecular target: T4, peptide Leu-Leu-Leu-Ala-Ala-Gly (LLLAAG)
T4 chain: LLLAAG

Which results are given for “GPLALLAQ (peptide sequence cleavable by proteinases present in tear fluid) [Gly-Pro-Leu-Ala-Leu-Leu-Ala-Gln, linker test peptide cleavable by tear fluid proteinases]”?
major cleavage products after incubation with human leukocyte elastase (human leukocyte elastase; 25° C., 30 minutes (FIG. 1)): GPLALL and AQ; cleavage products identified after incubation with contact lens rinsing liquid (tear fluid) ([1]; rinsing liquid of a single individual, over the weekend at 25° C.): GPLAL and LAQ, GPL and ALLAQ and GPLA and LLAQ; major cleavage products after incubation with human lung tryptase (human lung tryptase): GPLAL/LAQ

How did the “endoproteolytic cleavage after Arg or Val by tear fluid” value [1] turn out when “AAPRAARQ (peptide sequence cleavable by proteinases present in tear fluid) [Ala-Ala-Pro-Arg-Ala-Ala-Arg-Gln, synthetic test peptide comprising Arg as a charged, basic residue]” was run?
Its value is “Hydrolysis of peptide bonds involving Arg (R) is not observed”.

And the “proteolytic cleavage observed after incubation with tear fluid (rinsing fluid)” value [1]?
The value was “only showing cleavage at the N-terminal Ala”.

Which results are given for “AAPVAARQ (peptide sequence cleavable by proteinases present in tear fluid) [Ala-Ala-Pro-Val-Ala-Ala-Arg-Gln, synthetic test peptide comprising Val instead of Arg]”?
endoproteolytic cleavage after Arg or Val by tear fluid [1]: Cleavage C-terminal of Val does not occur; proteolytic cleavage observed after incubation with tear fluid (rinsing fluid) [1]: hydrolysis of the peptide bond between Pro and Val

Which results are given for “hyaluronic acid-peptide-HEMA conjugate: conjugate of hyaluronic acid with NH2-Leu-Leu-Leu-Ala-Ala-Gly hexapeptide and HEMA (hydroxyethyl methacrylate) (LLLAAG; not fully specified (N-terminus, C-terminus); printed as Leu-Leu-Leu-Ala-Ala-Gly; also: conjugate with hyaluronic acid and HEMA, attachment not given here)”?
peptide-HEMA fragments formed upon incubation with concentrated (lyophilized) contact lens rinsing liquid [2]: formation of various peptide-HEMA fragments; also recorded: is able to cleave the peptide of the hyaluronic acid-peptide-HEMA conjugate; also recorded: LAAG-HEMA; peptide-HEMA fragments formed upon incubation with elastase (human elastase): formation of the expected AG-HEMA fragment

For LLLAAG, which “conversion of intact peptide by elastase (digestion pattern)” value (human leukocyte elastase; overnight at room temperature, 50 mM ammonium acetate buffer) is on record?
The value was “converted to fragment Leu-Leu-Leu-Ala (LLLA); also recorded: completely converted to LLLA”.

Which “peptide cleavage products by mass spectrometry” value (“peptide cleavage products” below) [3] does the source give for human lung tryptase here?
Its value is “yielded GPLAL/LAQ as the major cleavage products”.

B1: human leukocyte elastase (protein)
chain: IVGGRRARPHAWPFMVSLQLRGGHFCGATLIAPNFVMSAAHCVANVNVRAVRVVLGAHNLSRREPTRQVFAVQRIFENGYDPVNLLNDIVILQLNGSATINANVQVAQLPAQGRRLGNGVQCLAMGWGLLGRNRGIASVLQELNVTVVTSLCRRSNVCTLVRGRQAGVCFGDSGSPLVCNGLIHGIASFVRGGCASGLYPDAFAPVAQFVNWIDSIIQ
For B1, which “peptide-HEMA fragments by LC-MS” value [4] is on record?
The value was “showed the formation of the expected AG-HEMA fragment”.

What about the “peptide cleavage products” value [5] of the same molecule?
Its value is “yielded GPLALL and AQ as the major cleavage products”.

And the “peptide cleavage products” value [6]?
Its value is “precursor peptide Leu-Leu-Leu-Ala-Ala-Gly (LLLAAG) was converted to fragment Leu-Leu-Leu-Ala (LLLA)”.
